Series [1] concerns PBMC. In words: Antiproliferative activity against human PBMC upto 100 uM. The format is cell-based.
The subject of series [2] is PBMC. In words: Antiproliferative activity against human PBMC. The class given is cell-based.

In the case of `O=c1ccc2c(O[C@@H]3O[C@H](CO)[C@@H](O)[C@H](O)[C@H]3O)c(O[C@@H]3O[C@H](CO)[C@@H](O)[C@H](O)[C@H]3O)c3occc3c2o1`, in the series with PBMC [1], the Activity result was “Not Active”. The same measure, in the same setting: the same measure for `O=c1ccc2c(O)c3ccoc3c(O[C@@H]3O[C@H](CO)[C@@H](O)[C@H](O)[C@H]3O)c2o1`: “Not Active”. The term IC50 denotes the midpoint of a concentration-inhibition curve. A higher IC50 goes with weaker potency in that assay. For `O=c1ccc2c(O[C@@H]3O[C@H](CO)[C@@H](O)[C@H](O)[C@H]3O)c(O)c3occc3c2o1`, the IC50 in the series on PBMC [2] amounted to 33.4 µM. As for `O=c1ccc2c(O[C@@H]3O[C@H](CO)[C@@H](O)[C@H](O)[C@H]3O)c3ccoc3c(O)c2o1`, the Activity entry with PBMC [1] is on record as “Not Active”. The same measure, in the same setting: the value for `O=c1ccc2c(O)c(O[C@@H]3O[C@H](CO)[C@@H](O)[C@H](O)[C@H]3O)c3occc3c2o1` was “Not Active”. The compound `C/C=C/C[C@@H](C)[C@@H](O)[C@H]1C(=O)N[C@@H](CC)C(=O)N(C)CC(=O)N(C)[C@@H](CC(C)C)C(=O)N[C@@H](C(C)C)C(=O)N(C)[C@@H](CC(C)C)C(=O)N[C@@H](C)C(=O)N[C@H](C)C(=O)N(C)[C@@H](CC(C)C)C(=O)N(C)[C@@H](CC(C)C)C(=O)N(C)[C@@H](C(C)C)C(=O)N1C` [CYCLOSPORINE] displayed an IC50 with PBMC [2] of 0.012 µM.

The record behind these values is ChEMBL document CHEMBL1142560, “Furocoumarin glycosides from the leaves of Ficus ruficaulis Merr. var. antaoensis” (J Nat Prod, 2005).
